Laboratory results as given in patent publication US20060135588A1, “Preventive and/or therapeutic drugs for inflammatory intestinal diseases” (priority 2002, published 2006).

Key:
Assay type in all cases: in vivo, Sprague-Dawley male rats
[1] = system: Dextran sulfate sodium (DSS)-induced colitis; assay: Evaluation of DSS-induced colitis by naked eyes (wet weight of large intestine, injured mucosa area); conditions: all groups: 1, 5 and 20 mg/kg/day s.c., 8 days of 4% DSS diet
Description: (§1) The edaravone as synthesized above was dissolved in a small amount of 1 N sodium hydroxide solution. Thereafter, the pH thereof was adjusted to be around neutral.
(§2) 6-week-old Sprague-Dawley male rats (Clea Japan, Inc.) were used. According to the method described in the previous report (Araki Y. et al., Scand J Gastroentero, 35, 1060-1067, 2000), colitis was induced to develop in the rats as follows. That is to say, 4% (w/w) dextran sulfate sodium (DSS; molecular weight: 5,000; Wako Pure Chemical Industries, Ltd., Osaka) was added to a powder diet MF (Oriental Yeast Co., Ltd.). The rats were fed with the thus obtained mixed diet at an amount of 30 g/day/rat for 8 days. […]
8 days later, the rats were subjected to anatomy. […] Thereafter, the large intestine (the colon and the rectum) was excised, and the wet weight of the organ was measured. The degree of the injured large intestinal mucosa was evaluated by naked eyes according to the method described in the previous report (Araki Y. et al., Scand J Gastroentero, 35, 1060-1067, 2000). That is, the areas of portions, on which a change in the color tone of the mucosa (redness), an attachment of blood clots, a collapse of mucosal wall area, edema, or erosion were observed, were measured. […]

[2] = system: Dextran sulfate sodium (DSS)-induced colitis; assay: Histological evaluation of DSS-induced colitis (damage score); conditions: 8 days DSS; for damage score vs control group: FIG. 3(A)
Description: as §1
(§3) 6-week-old Sprague-Dawley male rats (Clea Japan, Inc.) were used. According to the method described in the previous report (Araki Y. et al., Scand J Gastroentero, 35, 1060-1067, 2000), colitis was induced to develop in the rats as follows. That is to say, 4% (w/w) dextran sulfate sodium (DSS; molecular weight: 5,000; Wako Pure Chemical Industries, Ltd., Osaka) was added to a powder diet MF (Oriental Yeast Co., Ltd.). The rats were fed with the thus obtained mixed diet at an amount of 30 g/day/rat for 8 days. With regard to edaravone administration groups, from immediately after initiation of the administration of DSS, edaravone was subcutaneously injected into the back of each rat, at a dose of 1 mg/kg/day, 5 mg/kg/day, or 20 mg/kg/day, which was dividedly administered in the morning and evening. With regard to a control group, a normal saline solution was subcutaneously injected into the back of each rat in the same above manner.
The mucosa located at 5 mm from the anus side was fixed with a Carnoy's fluid for 3 hours, and was then embedded in paraffin. Thereafter, a tissue fragment with a thickness of 5 μm was prepared, followed by hematoxylin-eosin staining. Scoring of colitis was conducted in accordance with the method described in the previous report (Araki Y. et al., Scand J Gastroentero, 35, 1060-1067, 2000). Namely, the degree and size of each of the following 3 items: (i) the absence of the mucosal epithelium, (ii) deformation of crypts, and (iii) the level of infiltration of inflammatory cells, are expressed in the following point system: 0: none; 1: slight and localized; 2: moderate and localized; 3: moderate and broad; and 4: severe and broad. The total points regarding the above 3 items were summed up, and the obtained value was defined as the histological colitis score (damage score) of a rat.
The results are shown as mean±SEM. The comparison between groups was carried out by Fisher's PLSD Test. […]

[3] = system: myeloperoxidase activity in the large intestinal mucosa; assay: Myeloperoxidase activity in large intestinal mucosa of rats with DSS-induced colitis; conditions: 8 days DSS, FIG. 3(B)
Description: as §1, §2
Myeloperoxidase activity used as an indicator of inflammation in the large intestinal mucosa was measured by the method described in the previous report (Araki Y. et al., Clin Exp Immunol, 119, 264-269, 2000). […] The activity of the obtained homogenate was observed as a change in the absorbance at 460 nm obtained as a result of the reaction of H2O2 with o-dianisidin.
Hyperoxidation of lipids is an important mechanism regarding tissue injury. […] Accordingly, the concentrations of MDA and 4-HNE in the large intestinal mucosa were measured, and the obtained values were used as indicators of the state of reactive oxygen species (ROS) in tissues (Matsumura N. et al., Pancreas, 22, 53-7, 2001). […]

[4] = system: MDA and 4-HNE in the large intestinal mucosa; assay: Concentrations of MDA and 4-HNE in large intestinal mucosa of rats with DSS-induced colitis; conditions: all groups: 1, 5 and 20 mg/kg/day s.c., 8 days DSS; no significant differences among the administration groups; FIG. 4(A)
Description: as §1, §2
Hyperoxidation of lipids is an important mechanism regarding tissue injury. […] Accordingly, the concentrations of MDA and 4-HNE in the large intestinal mucosa were measured, and the obtained values were used as indicators of the state of reactive oxygen species (ROS) in tissues (Matsumura N. et al., Pancreas, 22, 53-7, 2001). That is, the large intestinal mucosa was homogenized with 9 times its volume of 50 mmol/l Tris-buffer (pH 8.0) containing 0.5% Triton X-100, and the concentrations were measured using an assay kit, Lipid peroxidation assay kit (Calbiochem, La Jolla, Calif., U.S.A.). […]

[5] = system: interleukin-6 in the plasma; assay: Concentration of interleukin-6 in plasma of rats with DSS-induced colitis (ELISA); conditions: 8 days DSS, FIG. 4(B)
Description: as §1
as §3, with “With regard to a control group, a normal saline solution was subcutaneously injected into the back of each rat in the same above manner.” left out
The concentration of interleukin-6 in the plasma was measured as an indicator of a systemic inflammatory reaction. That is to say, the blood was centrifuged at 10,000 rpm, and then the concentration of interleukin-6 in the plasma was measured by the ELISA method (Rat IL-6 ELISA KIT, BioSource Europe, S.A., Belgium). […]

[6] = all groups: 1, 5 and 20 mg/kg/day s.c.

## CC1=NN(c2ccccc2)C(=O)C1 [edaravone, 3-methyl-1-phenyl-2-pyrazolin-5-one]
[1]; FIG. 1(B)
  injured mucosa area vs control group: significantly smaller
[1]; divided morning and evening, FIG. 1(A)
  wet weight of the large intestine vs control group: significantly lower
[2]; 20 mg/kg/day s.c.
  damage score vs control group: significantly lower
[2]; 1, 5 and 20 mg/kg/day s.c., hematoxylin-eosin, FIG. 2
  edema formed in the submucosal layer and infiltration of inflammatory cells (large intestine tissue image): suppressed
[2]; [6]
  damage score vs control group: lower
[3]; 20 mg/kg/day s.c.
  myeloperoxidase activity in the large intestinal mucosa vs control group: significantly lower
[3]; [6]
  myeloperoxidase activity in the large intestinal mucosa vs control group: lower
[4]
  concentrations of MDA and 4-HNE in the large intestinal mucosa vs control group: lower
[5]; 20 mg/kg/day s.c.
  concentration of IL-6 in the plasma vs control group: significantly lower
[5]; [6]
  concentration of IL-6 in the plasma vs control group: lower
